Test results: ChEMBL document CHEMBL5465560, “Selectivity Literature for EUbOPEN Chemogenomic Library” (2024)
One block for each compound: values may come before it.

Columns and labels:
[1] = target: Inhibitor of nuclear factor kappa-B kinase subunit epsilon (Homo sapiens, UniProt Q14164); assay: Selectivity interaction (Enyzmatic assay) EUB0000601a IKBKE
[2] = target: Serine/threonine-protein kinase B-raf (Homo sapiens) (UniProt P15056); assay: Selectivity interaction (Kinase panel (DSF assay)) EUB0001559a BRAF
Serine/threonine-protein kinase B-raf (Homo sapiens), sequence (P15056 whole entry): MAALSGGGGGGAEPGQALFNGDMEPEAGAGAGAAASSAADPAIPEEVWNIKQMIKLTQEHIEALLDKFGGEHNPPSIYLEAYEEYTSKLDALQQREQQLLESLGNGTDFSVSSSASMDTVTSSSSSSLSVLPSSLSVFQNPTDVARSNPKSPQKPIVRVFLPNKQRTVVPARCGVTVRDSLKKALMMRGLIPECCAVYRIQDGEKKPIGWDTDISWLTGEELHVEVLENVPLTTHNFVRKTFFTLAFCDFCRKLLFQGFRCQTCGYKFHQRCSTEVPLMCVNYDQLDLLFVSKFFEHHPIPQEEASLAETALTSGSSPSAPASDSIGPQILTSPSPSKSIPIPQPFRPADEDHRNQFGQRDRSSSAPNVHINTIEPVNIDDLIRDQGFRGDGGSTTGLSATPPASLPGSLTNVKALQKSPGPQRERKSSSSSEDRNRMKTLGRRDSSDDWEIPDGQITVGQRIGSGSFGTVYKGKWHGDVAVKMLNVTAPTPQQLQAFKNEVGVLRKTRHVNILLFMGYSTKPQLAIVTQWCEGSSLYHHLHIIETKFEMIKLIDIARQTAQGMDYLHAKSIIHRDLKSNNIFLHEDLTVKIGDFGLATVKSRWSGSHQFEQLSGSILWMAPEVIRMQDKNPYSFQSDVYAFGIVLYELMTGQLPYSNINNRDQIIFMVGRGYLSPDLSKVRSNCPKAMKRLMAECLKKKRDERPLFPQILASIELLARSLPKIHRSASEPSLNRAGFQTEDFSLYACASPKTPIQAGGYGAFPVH

[3] = target: T1, Serine/threonine-protein kinase RIO1 (Homo sapiens) (UniProt Q9BRS2); assay: Selectivity interaction (Kinase panel (DSF assay)) EUB0001559a RIOK1
T1 sequence (whole entry): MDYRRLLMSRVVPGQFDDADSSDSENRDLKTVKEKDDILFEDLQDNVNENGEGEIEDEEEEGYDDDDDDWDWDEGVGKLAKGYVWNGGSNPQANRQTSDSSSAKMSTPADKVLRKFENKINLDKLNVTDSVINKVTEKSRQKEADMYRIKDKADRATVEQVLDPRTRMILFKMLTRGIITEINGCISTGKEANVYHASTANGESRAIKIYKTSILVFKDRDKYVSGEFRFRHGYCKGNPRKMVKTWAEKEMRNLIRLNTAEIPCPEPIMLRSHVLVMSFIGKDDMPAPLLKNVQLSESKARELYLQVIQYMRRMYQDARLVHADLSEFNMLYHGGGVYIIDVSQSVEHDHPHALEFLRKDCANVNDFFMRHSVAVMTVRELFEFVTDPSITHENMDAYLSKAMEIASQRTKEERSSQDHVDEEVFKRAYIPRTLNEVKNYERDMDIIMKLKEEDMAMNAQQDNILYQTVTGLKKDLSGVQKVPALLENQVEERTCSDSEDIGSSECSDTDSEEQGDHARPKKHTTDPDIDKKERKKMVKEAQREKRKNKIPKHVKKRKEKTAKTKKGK

[4] = target: T2, Histone-arginine methyltransferase CARM1 (Homo sapiens, UniProt Q86X55); assay: Selectivity interaction (Western Blot (dimethylation of BAF155 (BAF155me2a/BAF155) in NCI-H929 cells)) EUB0000255b CARM1; assay type: cell-based
T2 sequence (Q86X55 whole entry): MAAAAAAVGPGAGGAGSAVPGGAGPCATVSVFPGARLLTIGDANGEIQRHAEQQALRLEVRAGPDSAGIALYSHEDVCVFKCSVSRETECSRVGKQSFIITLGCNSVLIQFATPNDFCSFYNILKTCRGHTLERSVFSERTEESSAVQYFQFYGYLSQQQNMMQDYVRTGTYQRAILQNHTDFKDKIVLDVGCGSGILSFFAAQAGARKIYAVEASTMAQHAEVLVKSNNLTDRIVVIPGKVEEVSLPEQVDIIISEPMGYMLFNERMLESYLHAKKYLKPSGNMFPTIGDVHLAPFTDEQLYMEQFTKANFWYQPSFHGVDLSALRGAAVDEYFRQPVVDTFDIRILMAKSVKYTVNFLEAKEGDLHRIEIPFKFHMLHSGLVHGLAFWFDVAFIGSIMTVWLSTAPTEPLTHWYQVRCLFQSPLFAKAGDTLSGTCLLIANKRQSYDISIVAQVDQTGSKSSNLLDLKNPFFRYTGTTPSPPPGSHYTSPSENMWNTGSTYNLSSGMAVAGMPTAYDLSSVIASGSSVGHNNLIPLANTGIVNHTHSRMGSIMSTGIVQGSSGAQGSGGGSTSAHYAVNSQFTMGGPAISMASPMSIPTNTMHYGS

[5] = target: Leucine-rich repeat serine/threonine-protein kinase 2 (Homo sapiens, UniProt Q5S007); assay: (§1) Selectivity interaction (KinomeScan (DiscoverX)) EUB0001079a LRRK2; settings: at 1 µM
Leucine-rich repeat serine/threonine-protein kinase 2, sequence (Q5S007 whole entry): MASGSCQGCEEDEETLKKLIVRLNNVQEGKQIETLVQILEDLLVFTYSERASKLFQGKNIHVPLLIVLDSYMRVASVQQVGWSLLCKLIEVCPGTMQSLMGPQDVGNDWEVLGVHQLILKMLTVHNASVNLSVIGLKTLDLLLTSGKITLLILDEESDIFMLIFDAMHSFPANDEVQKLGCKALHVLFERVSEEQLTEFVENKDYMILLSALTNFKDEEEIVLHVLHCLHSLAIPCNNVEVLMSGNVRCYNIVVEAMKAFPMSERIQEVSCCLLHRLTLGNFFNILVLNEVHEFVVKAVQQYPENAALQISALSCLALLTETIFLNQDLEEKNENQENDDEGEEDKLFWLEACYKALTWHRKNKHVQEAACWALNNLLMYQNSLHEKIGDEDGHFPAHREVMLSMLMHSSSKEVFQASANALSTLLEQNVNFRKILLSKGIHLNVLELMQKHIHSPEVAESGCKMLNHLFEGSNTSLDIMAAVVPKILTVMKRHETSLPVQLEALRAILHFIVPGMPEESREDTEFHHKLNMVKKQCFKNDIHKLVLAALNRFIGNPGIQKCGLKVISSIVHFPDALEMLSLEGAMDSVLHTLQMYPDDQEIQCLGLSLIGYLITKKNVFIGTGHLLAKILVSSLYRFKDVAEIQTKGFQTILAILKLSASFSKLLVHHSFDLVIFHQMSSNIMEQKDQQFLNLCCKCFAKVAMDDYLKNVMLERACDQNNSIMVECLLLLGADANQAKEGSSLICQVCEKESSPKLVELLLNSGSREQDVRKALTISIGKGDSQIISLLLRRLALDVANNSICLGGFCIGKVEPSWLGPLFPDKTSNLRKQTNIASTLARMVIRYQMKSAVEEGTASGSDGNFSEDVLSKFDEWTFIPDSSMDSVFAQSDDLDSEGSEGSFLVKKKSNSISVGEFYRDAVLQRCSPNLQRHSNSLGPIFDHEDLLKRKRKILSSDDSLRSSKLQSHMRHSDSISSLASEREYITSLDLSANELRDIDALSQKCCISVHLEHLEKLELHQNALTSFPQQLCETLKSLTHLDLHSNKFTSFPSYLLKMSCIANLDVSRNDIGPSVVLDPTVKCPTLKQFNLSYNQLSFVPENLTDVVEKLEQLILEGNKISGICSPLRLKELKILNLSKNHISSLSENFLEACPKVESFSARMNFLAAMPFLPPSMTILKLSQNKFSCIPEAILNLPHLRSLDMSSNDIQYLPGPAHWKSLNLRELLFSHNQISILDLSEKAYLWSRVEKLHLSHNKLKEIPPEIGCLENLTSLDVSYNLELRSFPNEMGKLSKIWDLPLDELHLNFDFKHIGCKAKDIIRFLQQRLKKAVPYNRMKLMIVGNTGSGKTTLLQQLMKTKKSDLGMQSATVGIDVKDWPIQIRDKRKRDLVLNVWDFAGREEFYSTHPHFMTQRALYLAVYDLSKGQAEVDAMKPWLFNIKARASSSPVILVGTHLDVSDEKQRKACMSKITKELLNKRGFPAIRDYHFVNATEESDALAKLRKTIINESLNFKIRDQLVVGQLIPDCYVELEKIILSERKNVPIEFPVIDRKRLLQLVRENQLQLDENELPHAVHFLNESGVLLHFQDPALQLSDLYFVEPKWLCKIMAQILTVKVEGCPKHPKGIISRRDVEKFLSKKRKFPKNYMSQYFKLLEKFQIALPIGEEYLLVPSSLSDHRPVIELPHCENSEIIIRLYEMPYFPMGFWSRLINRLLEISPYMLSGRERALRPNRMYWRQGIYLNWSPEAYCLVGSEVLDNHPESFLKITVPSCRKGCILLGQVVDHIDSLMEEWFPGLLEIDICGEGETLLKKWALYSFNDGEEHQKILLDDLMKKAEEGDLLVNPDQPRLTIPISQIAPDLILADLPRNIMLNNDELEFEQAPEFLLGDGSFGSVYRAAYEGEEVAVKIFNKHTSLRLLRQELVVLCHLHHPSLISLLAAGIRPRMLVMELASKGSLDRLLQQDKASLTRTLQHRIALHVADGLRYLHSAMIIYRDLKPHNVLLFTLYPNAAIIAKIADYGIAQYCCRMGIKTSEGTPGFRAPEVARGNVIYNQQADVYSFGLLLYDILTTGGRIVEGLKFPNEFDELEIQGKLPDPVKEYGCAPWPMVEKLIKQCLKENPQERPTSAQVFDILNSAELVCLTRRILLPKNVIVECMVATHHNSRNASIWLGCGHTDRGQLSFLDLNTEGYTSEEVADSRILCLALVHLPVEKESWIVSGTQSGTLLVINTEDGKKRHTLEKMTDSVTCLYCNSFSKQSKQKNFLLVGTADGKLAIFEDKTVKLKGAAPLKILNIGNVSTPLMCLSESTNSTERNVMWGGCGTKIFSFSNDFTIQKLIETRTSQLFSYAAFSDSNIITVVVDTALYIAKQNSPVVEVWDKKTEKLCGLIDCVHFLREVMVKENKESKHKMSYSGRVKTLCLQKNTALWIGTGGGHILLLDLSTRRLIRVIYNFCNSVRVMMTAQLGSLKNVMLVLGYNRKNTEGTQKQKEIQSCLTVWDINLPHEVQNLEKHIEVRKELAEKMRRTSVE

[6] = test system: Leucine-rich repeat serine/threonine-protein kinase 2 (Homo sapiens), Q5S007 [G2019S]; assay: as §1; settings: at 1 µM
Leucine-rich repeat serine/threonine-protein kinase 2 (Homo sapiens), Q5S007 [G2019S], sequence (Q5S007 whole entry G2019S): as the sequence (Q5S007 whole entry) above, with G2019S counted along it

[7] = target: SRSF protein kinase 3 (Homo sapiens) (UniProt Q9UPE1); settings: at 10 µM
SRSF protein kinase 3 (Homo sapiens), sequence (Q9UPE1 whole entry): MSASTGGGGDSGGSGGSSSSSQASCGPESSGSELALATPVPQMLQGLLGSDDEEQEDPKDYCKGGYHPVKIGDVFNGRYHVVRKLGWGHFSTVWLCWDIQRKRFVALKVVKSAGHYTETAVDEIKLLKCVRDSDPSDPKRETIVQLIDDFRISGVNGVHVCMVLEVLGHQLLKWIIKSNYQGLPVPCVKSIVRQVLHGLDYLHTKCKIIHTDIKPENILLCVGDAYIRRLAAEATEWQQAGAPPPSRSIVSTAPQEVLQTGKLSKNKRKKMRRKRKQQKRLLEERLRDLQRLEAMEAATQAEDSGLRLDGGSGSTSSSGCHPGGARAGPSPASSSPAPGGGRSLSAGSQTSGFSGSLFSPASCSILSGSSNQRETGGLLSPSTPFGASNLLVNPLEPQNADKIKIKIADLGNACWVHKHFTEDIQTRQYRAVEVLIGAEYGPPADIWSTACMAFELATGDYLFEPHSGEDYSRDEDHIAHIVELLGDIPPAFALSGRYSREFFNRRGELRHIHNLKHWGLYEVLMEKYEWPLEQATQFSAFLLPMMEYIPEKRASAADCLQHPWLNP

[8] = target: T3, Cytoplasmic tyrosine-protein kinase BMX (Homo sapiens) (UniProt P51813); assay: Selectivity interaction (Kinase panel (Invitrogen)) EUB0000639a BMX; settings: at 200 nM
T3 sequence (whole entry): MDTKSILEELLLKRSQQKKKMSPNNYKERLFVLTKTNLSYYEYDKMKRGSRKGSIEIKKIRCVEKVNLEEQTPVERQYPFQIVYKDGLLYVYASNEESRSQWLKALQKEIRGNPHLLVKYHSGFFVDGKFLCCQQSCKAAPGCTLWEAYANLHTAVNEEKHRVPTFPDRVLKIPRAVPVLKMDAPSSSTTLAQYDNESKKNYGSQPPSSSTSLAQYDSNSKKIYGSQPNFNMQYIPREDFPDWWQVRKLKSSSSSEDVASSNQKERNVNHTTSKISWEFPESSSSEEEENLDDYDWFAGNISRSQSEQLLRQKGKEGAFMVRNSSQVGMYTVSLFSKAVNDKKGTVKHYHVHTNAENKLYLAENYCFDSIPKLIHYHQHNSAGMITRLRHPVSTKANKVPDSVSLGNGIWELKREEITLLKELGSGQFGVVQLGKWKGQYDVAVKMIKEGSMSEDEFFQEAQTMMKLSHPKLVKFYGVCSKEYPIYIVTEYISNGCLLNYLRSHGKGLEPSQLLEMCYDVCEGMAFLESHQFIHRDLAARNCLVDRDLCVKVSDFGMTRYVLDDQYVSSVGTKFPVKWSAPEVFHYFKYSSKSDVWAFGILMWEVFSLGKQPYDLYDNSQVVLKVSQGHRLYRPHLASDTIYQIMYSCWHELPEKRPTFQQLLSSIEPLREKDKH

[9] = target: T4, Cyclin-dependent kinase-like 2 (Homo sapiens) (UniProt Q92772); assay: Selectivity interaction (KinomeScan (DiscoverX)) EUB0001049a CDKL2; settings: at 1 µM
T4 sequence (whole entry): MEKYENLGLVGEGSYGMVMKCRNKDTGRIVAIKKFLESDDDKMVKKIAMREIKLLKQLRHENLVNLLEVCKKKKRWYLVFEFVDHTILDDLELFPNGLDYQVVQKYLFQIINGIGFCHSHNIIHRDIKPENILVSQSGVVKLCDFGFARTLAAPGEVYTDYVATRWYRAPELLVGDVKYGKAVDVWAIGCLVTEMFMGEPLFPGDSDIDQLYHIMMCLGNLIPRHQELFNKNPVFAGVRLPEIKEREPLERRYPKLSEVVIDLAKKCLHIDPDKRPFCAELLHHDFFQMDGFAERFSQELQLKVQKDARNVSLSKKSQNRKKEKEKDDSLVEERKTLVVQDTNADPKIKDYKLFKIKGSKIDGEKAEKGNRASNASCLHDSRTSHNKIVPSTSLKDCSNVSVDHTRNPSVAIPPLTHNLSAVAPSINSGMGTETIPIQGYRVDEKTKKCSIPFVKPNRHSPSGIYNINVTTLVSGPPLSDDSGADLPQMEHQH

[10] = target: Type-1 angiotensin II receptor (Homo sapiens, UniProt P30556); assay: Selectivity interaction (Angiotensin II AT1 receptor binding assay, human recombinant ) EUB0000877a AGTR1
Type-1 angiotensin II receptor, sequence (P30556 whole entry): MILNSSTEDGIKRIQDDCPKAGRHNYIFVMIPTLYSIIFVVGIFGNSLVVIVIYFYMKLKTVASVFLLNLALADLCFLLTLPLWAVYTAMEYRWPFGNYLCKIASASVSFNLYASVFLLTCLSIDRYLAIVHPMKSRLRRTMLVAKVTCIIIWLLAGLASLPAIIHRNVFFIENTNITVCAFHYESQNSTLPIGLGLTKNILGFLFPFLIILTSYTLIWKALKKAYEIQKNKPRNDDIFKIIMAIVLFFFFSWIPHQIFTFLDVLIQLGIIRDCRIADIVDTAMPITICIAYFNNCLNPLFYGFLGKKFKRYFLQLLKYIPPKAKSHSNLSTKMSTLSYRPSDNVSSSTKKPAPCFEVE

[11] = target: Ribosomal protein S6 kinase alpha-5 (Homo sapiens) (UniProt O75582); assay: Selectivity interaction (KinomeScan (DiscoverX)) EUB0000311b RPS6KA5; settings: at 1 µM
Ribosomal protein S6 kinase alpha-5 (Homo sapiens), sequence (O75582 whole entry, looked up): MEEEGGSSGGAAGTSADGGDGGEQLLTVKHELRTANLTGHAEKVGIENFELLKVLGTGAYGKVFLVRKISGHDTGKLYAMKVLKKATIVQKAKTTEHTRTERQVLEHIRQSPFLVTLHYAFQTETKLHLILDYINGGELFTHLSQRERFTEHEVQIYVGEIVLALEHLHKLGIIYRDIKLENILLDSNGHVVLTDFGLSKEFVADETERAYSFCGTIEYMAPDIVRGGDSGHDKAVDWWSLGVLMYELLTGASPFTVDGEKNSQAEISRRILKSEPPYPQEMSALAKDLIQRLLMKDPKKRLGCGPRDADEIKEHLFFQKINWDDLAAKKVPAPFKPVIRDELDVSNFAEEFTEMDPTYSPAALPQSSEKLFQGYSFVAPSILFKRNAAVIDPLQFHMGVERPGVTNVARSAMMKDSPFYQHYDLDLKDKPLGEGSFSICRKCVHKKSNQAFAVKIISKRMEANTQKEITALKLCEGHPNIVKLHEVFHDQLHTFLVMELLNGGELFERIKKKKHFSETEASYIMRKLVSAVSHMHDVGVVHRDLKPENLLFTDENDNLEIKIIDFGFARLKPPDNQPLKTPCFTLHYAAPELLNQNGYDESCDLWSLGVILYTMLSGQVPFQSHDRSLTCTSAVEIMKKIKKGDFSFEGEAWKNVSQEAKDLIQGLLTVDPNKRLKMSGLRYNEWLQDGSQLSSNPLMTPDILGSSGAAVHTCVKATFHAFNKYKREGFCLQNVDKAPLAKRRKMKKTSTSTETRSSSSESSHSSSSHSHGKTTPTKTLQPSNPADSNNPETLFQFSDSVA

IC50 [1]: 3.2 µM
SMILES: CCc1cc(Nc2nccc(-c3c(-c4ccc(OC)c(C(=O)Nc5c(F)cccc5F)c4)nc4ccccn34)n2)c(OC)cc1N1CCC(N2CCN(S(C)(=O)=O)CC2)CC1

dTM [2]: 1.7 K
dTM [3]: -0.2 K
SMILES: CN(C(=O)c1cnn2cccnc12)c1cc2c(cc1N1CCOCC1)C(=O)N(C[C@@H](F)C(C)(C)O)C2

SMILES: COCCN1CCC(c2cc(CN(C)C(=O)c3cccc(Oc4ccccc4)c3)ccn2)CC1
IC50 [4]: > 0.003 µM

SMILES: Nc1cnc(N2CCc3cc(S(=O)(=O)Nc4c(F)cc(Cl)cc4F)cc(N4CCCC4=O)c32)nc1 [TP-020n]
% of control [5]: 97%
% of control [6]: 81%

SMILES: Cc1cc([C@@H](C)Nc2ccccc2C(=O)O)c2nc(N3CCOCC3)cc(=O)n2c1 [AZD-6482]
% of control [7]: 100%

% of inhibition [8]: -1.42%
SMILES: CC[C@@H]1[C@H](F)C(=O)N[C@@H]1COc1nccc2cc(C(N)=O)c(OC)cc12 [ZIMLOVISERTIB]

SMILES: COc1cc(Nc2nc(C)cc(-c3cnn4nc(OC)ccc34)n2)cc(C(F)(F)F)c1
% of control [9]: 100%

IC50 [10]: > 30 µM
SMILES: CCC(=O)N1CC[C@H](Nc2ncnc3c2CN(c2cnc(OC)c(C(F)(F)F)c2)CC3)C1 [LENIOLISIB]

% of control [11]: 1%
SMILES: CCc1ccccc1C(=O)Nc1n[nH]c2c(C)c(F)c(C3C(C#N)=C(C)N(C)C(C)=C3C#N)cc12 [BAY-3827]
